PubChem BioAssay (NCI)
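Where inhibition never reached the appropriate level, the endpoint shown equals the highest concentration tested. Otherwise, values were interpolated linearly from a five-concentration, 48-hour dose response in 96-well plates. GI50 = concentration required for 50% inhibition of growth. Definition used: TGI = concentration required for complete inhibition of growth.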

Experiments:
Experiment in all cases: NCI-60 cell line screen, 48 h
[1] = tested on: OVCAR-4 ovarian
[2] = tested on: M14 melanoma
[3] = tested on: DLD-1 colon
[4] = tested on: IGROV1 ovarian
[5] = tested on: OVCAR-3 ovarian
[6] = tested on: SK-MEL-2 melanoma
[7] = tested on: OVCAR-8 ovarian
[8] = tested on: CAKI-1 renal
[9] = tested on: M19-MEL melanoma
[10] = tested on: SNB-78 CNS
[11] = tested on: SNB-75 CNS
[12] = tested on: SNB-19 CNS
[13] = tested on: MOLT-4 leukemia
[14] = tested on: RPMI-8226 leukemia
[15] = tested on: HCT-116 colon
[16] = tested on: LXFL 529 NSCLC
[17] = tested on: XF 498 CNS
[18] = tested on: HOP-92 NSCLC
[19] = tested on: ACHN renal
[20] = tested on: A549 NSCLC
[21] = tested on: SK-MEL-28 melanoma
[22] = tested on: NCI-H23 lung
[23] = tested on: HCT-15 colon
[24] = tested on: SN12C renal
[25] = tested on: HOP-18 NSCLC
[26] = tested on: TK-10 renal
[27] = tested on: OVCAR-5 ovarian
[28] = tested on: SR leukemia
[29] = tested on: SF-295 CNS
[30] = tested on: CCRF-CEM leukemia
[31] = tested on: SK-MEL-5 melanoma
[32] = tested on: NCI-H460 lung
[33] = tested on: HT29 colon
[34] = tested on: SF-539 CNS
[35] = tested on: SK-OV-3 ovarian
[36] = tested on: SF-268 CNS
[37] = tested on: EKVX NSCLC
[38] = tested on: UACC-257 melanoma
[39] = tested on: COLO 205 colon
[40] = tested on: KM20L2 colon
[41] = tested on: LOX IMVI melanoma
[42] = tested on: K-562 leukemia
[43] = tested on: HOP-62 NSCLC
[44] = tested on: 786-0 renal
[45] = tested on: NCI-H226 lung
[46] = tested on: HCC-2998 colon
[47] = tested on: HL-60(TB) leukemia
[48] = tested on: DMS 273 small cell lung
[49] = tested on: SW-620 colon
[50] = tested on: UO-31 renal
[51] = tested on: MALME-3M melanoma
[52] = tested on: NCI-H522 lung
[53] = tested on: DMS 114 small cell lung
[54] = tested on: UACC-62 melanoma
[55] = tested on: RXF 393 renal
[56] = tested on: U251 CNS
[57] = tested on: KM12 colon
[58] = tested on: RXF-631 renal
[59] = tested on: A498 renal
[60] = tested on: T-47D breast
[61] = tested on: MCF7 breast
[62] = tested on: BT-549 breast
[63] = tested on: NCI/ADR-RES ovarian
[64] = tested on: DU-145 prostate
[65] = tested on: MDA-N
[66] = tested on: MDA-MB-435
[67] = tested on: HS 578T breast
[68] = tested on: PC-3 prostate
[69] = tested on: MDA-MB-231 breast

## COc1cc(OC)cc(-c2cc(=O)c3cc4c(cc3[nH]2)OCO4)c1
[1]
  TGI: > 96.1 µM
[2]
  TGI: > 48.1 µM
[3]
  TGI: 36.4 µM
[4]
  TGI: 18.2 µM
[5]
  TGI: 5.82 µM
[6]
  TGI: 4.46 µM
[7]
  TGI: 9.55 µM
[8]
  TGI: > 100 µM
[9]
  TGI: > 100 µM
[10]
  TGI: > 89.2 µM
[11]
  TGI: 43.7 µM
[12]
  TGI: 72.5 µM
[13]
  TGI: > 51 µM
[14]
  TGI: > 58.8 µM
[15]
  TGI: 5.5 µM
[16]
  TGI: 20.6 µM
[17]
  TGI: 2.58 µM
[18]
  TGI: 21.1 µM
[19]
  TGI: > 35.5 µM
[20]
  TGI: 45.1 µM
[21]
  TGI: > 71.7 µM
[22]
  TGI: 9.09 µM
[23]
  TGI: 22.8 µM
[24]
  TGI: 30 µM
[25]
  TGI: > 75.6 µM
[26]
  TGI: 55 µM
[27]
  TGI: > 63.1 µM
[28]
  TGI: 9.54 µM
[29]
  TGI: 1.74 µM
[30]
  TGI: 4.56 µM
[31]
  TGI: 8.23 µM
[32]
  TGI: 3.33 µM
[33]
  TGI: > 100 µM
[34]
  TGI: 0.498 µM
[35]
  TGI: 4.49 µM
[36]
  TGI: 38.6 µM
[37]
  TGI: > 100 µM
[38]
  TGI: > 100 µM
[39]
  TGI: 0.471 µM
[40]
  TGI: 0.652 µM
[41]
  TGI: > 51.1 µM
[42]
  TGI: > 50.2 µM
[43]
  TGI: 17.9 µM
[44]
  TGI: 33 µM
[45]
  TGI: 1.06 µM
[46]
  TGI: 0.787 µM
[47]
  TGI: 0.714 µM
[48]
  TGI: 3.31 µM
[49]
  TGI: > 100 µM
[50]
  TGI: > 88.9 µM
[51]
  TGI: > 100 µM
[52]
  TGI: 0.593 µM
[53]
  TGI: 0.726 µM
[54]
  TGI: > 53.3 µM
[55]
  GI50: 0.219 µM
  TGI: 0.518 µM
[56]
  TGI: > 31.9 µM

## CCN(CC)CCCC(C)Nc1c2cc(OC)cc(C)c2nc2c(C)c(Cl)ccc12 (stereo unspecified)
[2]
  TGI: 3.68 µM
[3]
  TGI: 2.93 µM
[4]
  TGI: 3.09 µM
[5]
  TGI: 3.27 µM
[6]
  TGI: 3.44 µM
[7]
  TGI: 3.19 µM
[8]
  TGI: 4.81 µM
[9]
  TGI: 3.13 µM
[13]
  TGI: 3.26 µM
[16]
  TGI: 2.98 µM
[18]
  TGI: 3.22 µM
[19]
  TGI: 3.09 µM
[20]
  TGI: 3.31 µM
[21]
  TGI: 3.39 µM
[22]
  TGI: 2.82 µM
[23]
  TGI: 3.2 µM
[24]
  TGI: 2.93 µM
[25]
  TGI: 2.91 µM
[26]
  TGI: 3.19 µM
[27]
  TGI: 3.92 µM
[29]
  TGI: 3.71 µM
[30]
  TGI: 3.25 µM
[31]
  TGI: 3.28 µM
[32]
  TGI: 3.32 µM
[33]
  TGI: 3.03 µM
[35]
  TGI: 3.06 µM
[57]
  TGI: 2.99 µM
[38]
  TGI: 3.31 µM
[58]
  TGI: 3.23 µM
[43]
  TGI: 3.08 µM
[44]
  TGI: 3.02 µM
[46]
  TGI: 3.03 µM
[47]
  TGI: 4.26 µM
[48]
  TGI: 3.14 µM
[59]
  TGI: 6.3 µM
[50]
  TGI: 3.1 µM
[51]
  TGI: 3.52 µM
[52]
  TGI: 3.06 µM
[55]
  TGI: 3.54 µM
[56]
  TGI: 3.26 µM

## O=C(CCN1CCCCC1)N1CCc2c([nH]c3ccccc23)C1c1cccnc1 (stereo unspecified)
[60]
  TGI: > 100 µM
[1]
  TGI: > 100 µM
[61]
  TGI: > 100 µM
[2]
  TGI: 42.2 µM
[3]
  TGI: > 100 µM
[4]
  TGI: > 100 µM
[62]
  TGI: > 86.2 µM
[5]
  TGI: > 100 µM
[6]
  TGI: 36.9 µM
[7]
  TGI: > 100 µM
[8]
  TGI: > 100 µM
[9]
  TGI: 46.1 µM
[10]
  TGI: > 100 µM
[11]
  TGI: > 92.1 µM
[12]
  TGI: > 100 µM
[13]
  TGI: > 100 µM
[14]
  TGI: > 100 µM
[15]
  TGI: > 100 µM
[16]
  TGI: 38.1 µM
[17]
  TGI: 57.3 µM
[18]
  TGI: 66 µM
[19]
  TGI: > 100 µM
[20]
  TGI: > 100 µM
[63]
  TGI: > 100 µM
[21]
  TGI: 37.2 µM
[64]
  TGI: > 100 µM
[22]
  TGI: > 100 µM
[23]
  TGI: > 100 µM
[24]
  TGI: > 100 µM
[25]
  TGI: > 100 µM
[26]
  TGI: > 100 µM
[27]
  TGI: > 92.9 µM
[28]
  TGI: > 100 µM
[65]
  TGI: 75 µM
[66]
  TGI: 75.1 µM
[29]
  TGI: > 100 µM
[30]
  TGI: 99 µM
[31]
  TGI: 41.3 µM
[32]
  TGI: > 100 µM
[33]
  TGI: 75.4 µM
[34]
  TGI: > 85.7 µM
[35]
  TGI: > 100 µM
[36]
  TGI: > 87.9 µM
[37]
  TGI: 98.2 µM
[57]
  TGI: > 100 µM
[38]
  TGI: 34.7 µM
[39]
  TGI: 44.8 µM
[40]
  TGI: > 70.8 µM
[41]
  TGI: > 100 µM
[42]
  TGI: 75.1 µM
[58]
  TGI: > 80.7 µM
[43]
  TGI: > 100 µM
[44]
  TGI: 82.9 µM
[45]
  TGI: > 100 µM
[46]
  TGI: 54.8 µM
[47]
  TGI: > 93.2 µM
[48]
  TGI: > 100 µM
[49]
  TGI: > 100 µM
[67]
  TGI: > 100 µM
[59]
  TGI: > 100 µM
[50]
  TGI: 71.1 µM
[68]
  TGI: > 100 µM
[51]
  TGI: 41.6 µM
[52]
  TGI: 79.7 µM
[53]
  TGI: > 69.7 µM
[69]
  TGI: > 74.2 µM
[54]
  TGI: 42.2 µM
[55]
  TGI: 81.5 µM
[56]
  TGI: > 100 µM
